Holding throughout (assay type): cell-based
Data set [1] deals with Zluc cells (Huh-7-derived cell line). Nature of the data set: Cytotoxicity evaluation, CellTiter-Blue Cell Viability Assay. To be noted: read-out: HCV Replicon CC50. Here is the method:
(§1) For cytotoxicity evaluation, Zluc cells were treated with compound as described above, and cell viability was monitored using the CellTiter-Blue Cell Viability Assay (Promega) by adding 20 μL of the assay solution to each well. The plates were then incubated at 37° C./5% CO2 for at least 3 hours.
For orientation: Alamar Blue is a resazurin reagent that responds to reducing activity.

The subject of another data set is HCV genotype 1b replicon. As to the kind of experiment: microbe, parasite or virus in culture. To be noted: read-out: HCV Replicon EC50. Here is the method: Huh-7-derived cell line (Zluc) that harbors an HCV genotype 1b replicon and a luciferase reporter gene was grown in Dulbecco's Modified Eagle Medium (DMEM) supplemented with 10% fetal bovine serum, 2 mM GlutaMAX, 1% MEM nonessential amino acids, 100 IU/mL penicillin, 100 μg/mL streptomycin, and 0.5 mg/mL Geneticin® (G418). For dose response testing the cells were seeded in 96-well plates at 7.5×10^3 cells per well in a volume of 50 μL, and incubated at 37° C./5% CO2. Drug solutions were made up freshly in Huh-7 media as 2× stocks. Ten additional 5-fold dilutions were prepared from these stocks in DMEM without G418. At least three hours after Zluc cells were seeded, drug treatment was initiated by adding 50 μL of drug dilutions to the plates in duplicate. […] Cells were then incubated at 37° C./5% CO2. Alternatively compounds were tested at two concentrations (10 nM and 100 nM). […] For this, media was removed from the plates via gentle tapping. Fifty microliters of ONE-glo luciferase assay reagent was added to each well. […] The EC50 values were calculated from dose response curves from the resulting best-fit equations determined by Microsoft Excel and XLfit 4.1 software.

Data set [2] is described as follows: Cytotoxicity evaluation, CellTiter-Blue Cell Viability Assay. The note with it: human, Zluc cells (Huh-7-derived cell line), read-out: HCV Replicon CC50. Here is the method: as §1
The mark [3] stands for this setting: Zluc cells, HCV genotype 1b replicon, luciferase, 72 hours of incubation.

Read-outs that look alike come from different tables or passages of the source.

One may read the CC50 as the concentration at which the toxic effect on the cells reaches its halfway point. By EC50 is commonly meant the concentration giving half of the maximal effect. Take `CCOC(=O)OC(C)OP(=O)(N[C@@H](C)C(=O)OC(C)C)OC[C@H]1O[C@@H](n2cnc3c(OC)nc(N)nc32)[C@](C)(F)[C@@H]1O` (single isomer, unassigned) [Compound 16]: the CC50 in data set [1] is greater than 50 µM. Further, the EC50 in the data set with HCV genotype 1b replicon (setting [3]) was less than 100 nM.

Take `CCOC(=O)OC(C)OP(=O)(N[C@@H](C)C(=O)OC(C)C)OC[C@H]1O[C@@H](n2cnc3c(OC)nc(N)nc32)[C@](C)(F)[C@@H]1O` (single isomer, unassigned) [Compound 17]: the CC50 in data set [1] was greater than 50 µM. The EC50 with HCV genotype 1b replicon (setting [3]) is less than 100 nM.

Turning to `CCNC(=O)OCOP(=O)(N[C@H](C(=O)OCC)C(C)(C)C)OC[C@H]1O[C@@H](n2cnc3c(OCC)nc(N)nc32)[C@](C)(F)[C@@H]1O` (single isomer, unassigned) [Compound 21], the CC50 in data set [2] is greater than 50 µM. Further, the EC50 in the data set on HCV genotype 1b replicon (Hepatitis C virus, 72 h) is 1000 to 10000 nM.

Regarding `CCNC(=O)OCOP(=O)(N[C@H](C(=O)OCC)C(C)(C)C)OC[C@H]1O[C@@H](n2cnc3c(OCC)nc(N)nc32)[C@](C)(F)[C@@H]1O` (single isomer, unassigned) [Compound 22], the CC50 in data set [2] is greater than 50 µM. The EC50 with HCV genotype 1b replicon (Hepatitis C virus, 72 h) fell in the range of 1000 to 10000 nM.

On to `C[C@@]1(O)[C@H](O)[C@@H](COP(=O)(O)NCc2ccccc2)O[C@H]1n1cnc2c(=O)[nH]c(N)nc21` [Compound 1], for which, in data set [2], the CC50 was greater than 50 µM. Besides, the EC50 in the data set on HCV genotype 1b replicon (Hepatitis C virus, 72 h) lay in the range of 100 to 1000 nM.

Consider `CC(C)(C)C(=O)OCOP(=O)(NCc1ccccc1)OC[C@H]1O[C@@H](n2cnc3c(=O)[nH]c(N)nc32)[C@](C)(O)[C@@H]1O` (stereo partly drawn) [Compound 2], for which the CC50 in data set [2] was greater than 50 µM. In the data set on HCV genotype 1b replicon (Hepatitis C virus, 72 h), the EC50 was less than 100 nM.

Consider `COc1nc(N)nc2c1ncn2[C@@H]1O[C@H](COP(=O)(NCc2ccccc2)OC(OC(=O)OC(C)C)C(C)C)[C@@H](O)[C@@]1(C)O` (stereo partly drawn) [Compound 6], for which, in data set [2], the CC50 is less than 50 µM. The EC50 with HCV genotype 1b replicon (Hepatitis C virus, 72 h) is less than 100 nM.

Regarding `COc1nc(N)nc2c1ncn2[C@@H]1O[C@H](COP(=O)(N[C@@H](CC(C)C)C(=O)OC(C)C)OCOC(=O)OC(C)C)[C@@H](O)[C@@]1(C)O` (stereo partly drawn) [Compound 7], the CC50 in data set [2] is greater than 50 µM. For the same compound, in the data set with HCV genotype 1b replicon (Hepatitis C virus, 72 h), the EC50 is less than 100 nM.

For the compound `CCOc1nc(N)nc2c1ncn2[C@@H]1O[C@H](COP(=O)(N[C@@H](C)C(=O)OC(C)C)OC(C)OC(=O)SCC)[C@@H](O)[C@@]1(C)F` (stereo partly drawn) [Compound 24], the CC50 in data set [2] is greater than 50 µM. Moreover, the EC50 in the data set with HCV genotype 1b replicon (Hepatitis C virus, 72 h) was less than 100 nM.

The values above are taken from patent US20130064794A1, “Substituted Carbonyloxymethylphosphoramidate Compounds and Pharmaceutical Compositions for the Treatment of Viral Infections” (IDENIX PHARMACEUTICALS, INC., priority 2011, published 2013).
